Results on nine compounds are retold here after US11149031B2, “Substituted N-(3-fluoropropyl)-pyrrolidine compounds, processes for their preparation and therapeutic uses thereof” (SANOFI, priority 2016, dated 2021).

The structures appear in SMILES notation.

Assay [1] addresses His6-ERα298-554 WT (ERα ligand-binding domain) (Homo sapiens (Human), UniProt P03372). Description: Test A: biochemical antagonist activity, LanthaScreen TR-FRET ERα coactivator assay, WT. Particulars: protocol with 3 nM estradiol; read-out: Antagonism WT IC50. The protocol: (§1) Test A: Biochemical Antagonist Activity on Wild Type (WT) and Mutants
(§2) Estrogen Receptors Test A involves measuring the in vitro antagonist activity of the compounds of the invention on estrogen receptors.
(§3) The measurements of the antagonist activities were made using an estrogen receptor coactivator assay as described hereunder.
(§4) Antagonistic potency of compounds was evaluated using LanthaScreen® TR-FRET ERα Coactivator Assay (ThermoFisher) with modifications. […] The assay works in a homogeneous mix-and-read format. In a typical experiment, a 4 μL mixture of 0.5 nM His6-ERα298-554, 0.5 nM Tb-labeled His6 antibody, 250 nM PGC1a peptide, and 3 nM estradiol (or 10 nM estradiol) in 100 mM potassium phosphate, pH 7.4, 0.01% Tween-20, 0.02% NaN3, 5 mM DTT, was added to 40 nL test compound in DMSO and incubated overnight at room temperature. The TR-FRET 520:495 nm emission ratio was calculated and used to determine the IC50 value from a dose response curve fit to the 4-parameter logistic equation.

For assay [2], the target named is ERα in MCF7 cells (Homo sapiens (Human), UniProt P03372). Briefly: Test C: estrogen receptor degradation activity, ERα in cell western assay in MCF7 cells. The assay is classed as cell-based. Particulars: for DC50: 4 hours post compound addition, ERα in cell western, read-out: Degradation IC50; for % Degradation at 3 μM: 4 hours, relative to fulvestrant. Here is the method: Test C: Estrogen Receptor Degradation Activity
Test C involves measuring the in vitro degradation activity of the compounds of the invention.
The measurements of the degradation activities were made using abreast cancer cell ERα in cell western assay as described hereunder.
MCF7 cells (ATCC) were seeded in 384 wells microplate (collagen coated) at concentration of >9990 cells/30 μL per well in red phenol free MEM alpha medium (invitrogen) containing 5% charcoal dextran striped FBS. The following day, 9 points serial 1:5 dilution of each compound were added to the cells in 2.5 μL at final concentrations ranging from 3-0.000018 μM or 0.1 μM for fulvestrant (using as positive control). At 4 hours post compounds addition the cells were fixed by adding 25 μL of formalin (final concentration 5% formalin containing 0.1% triton) for 10 minutes at room temperature and then washed twice with PBS. Then, 50 μL of LI-COR blocking buffer containing 0.1% Triton was added to plate for 30 minutes at room temperature. LI-COR blocking buffer was removed and cells were incubated overnight at cold room with 50 μL anti-ER rabbit monoclonal antibody (Thermo scientific MA1-39540) diluted at 1:>999 in LI-COR blocking buffer containing 0.1% tween-20. Wells which were treated with blocking but no antibody were used as background control. Wells were washed twice with PBS (0.1% tween-20) and incubated at 37° C. for 60 minutes in LI-COR (0.1% tween-20) containing goat anti-rabbit antibody Alexa 488 (1:>999) and Syto-64 a DNA dye (2 μM final concentration). Cells were then washed 3 times in PBS and scanned in ACUMEN explorer (TTP-Labtech). Integrated intensities in the green fluorescence and red fluorescence were measured to determine the levels of ERα and DNA respectively.

The target in assay [3] is His6-ERα298-554 Y537S mutant (ERα ligand-binding domain) (Homo sapiens (Human), UniProt P03372, Y537S). Description: Test A: biochemical antagonist activity, LanthaScreen TR-FRET ERα coactivator assay, Y537S mutant. Particulars: protocol with 3 nM estradiol; read-out: Antagonism Y537S IC50. The protocol:
as §1, §2, §3, §4
(TR-FRET usually uses a lanthanide donor and a delayed reading to cut background.)

Assay [4] addresses His6-ERα298-554 D538G mutant (ERα ligand-binding domain) (Homo sapiens (Human), UniProt P03372, D538G). Description: Test A: biochemical antagonist activity, LanthaScreen TR-FRET ERα coactivator assay, D538G mutant. To be noted: protocol with 3 nM estradiol; read-out: Antagonism D538G IC50. The protocol: as §1, §2, §3, §4

Chain of ERα in MCF7 cells (P03372 whole entry): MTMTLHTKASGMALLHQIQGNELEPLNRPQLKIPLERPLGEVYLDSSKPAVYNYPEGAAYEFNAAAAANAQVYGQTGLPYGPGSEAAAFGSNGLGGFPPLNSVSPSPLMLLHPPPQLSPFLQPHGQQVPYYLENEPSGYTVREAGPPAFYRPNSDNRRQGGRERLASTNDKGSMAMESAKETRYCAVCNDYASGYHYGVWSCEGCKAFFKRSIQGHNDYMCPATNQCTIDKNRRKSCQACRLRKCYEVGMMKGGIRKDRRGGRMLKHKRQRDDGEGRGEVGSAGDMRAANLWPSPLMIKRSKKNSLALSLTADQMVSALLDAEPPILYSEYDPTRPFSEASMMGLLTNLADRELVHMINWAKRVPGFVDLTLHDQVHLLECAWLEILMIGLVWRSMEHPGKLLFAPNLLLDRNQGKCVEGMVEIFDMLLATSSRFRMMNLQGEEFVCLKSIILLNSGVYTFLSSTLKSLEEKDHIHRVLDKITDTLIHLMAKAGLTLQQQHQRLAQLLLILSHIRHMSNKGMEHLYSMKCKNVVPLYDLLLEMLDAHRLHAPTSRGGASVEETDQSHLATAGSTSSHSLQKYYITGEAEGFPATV
Chain of His6-ERα298-554 D538G mutant (ERα ligand-binding domain) (P03372 298-554 D538G): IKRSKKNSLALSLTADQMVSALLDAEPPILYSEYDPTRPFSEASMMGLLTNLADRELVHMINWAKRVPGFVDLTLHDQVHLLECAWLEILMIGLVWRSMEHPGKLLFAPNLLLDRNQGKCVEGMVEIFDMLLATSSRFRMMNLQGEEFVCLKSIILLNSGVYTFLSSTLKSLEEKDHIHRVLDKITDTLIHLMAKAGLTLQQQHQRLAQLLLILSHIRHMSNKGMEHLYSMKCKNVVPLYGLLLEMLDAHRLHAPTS
Chain of His6-ERα298-554 WT (ERα ligand-binding domain) (P03372 298-554): as the sequence (P03372 298-554 D538G) above, with G241D counted along it
Chain of His6-ERα298-554 Y537S mutant (ERα ligand-binding domain) (P03372 298-554 Y537S): as the sequence (P03372 298-554 D538G) above, with Y240S, G241D counted along it

As usually defined, the IC50 is the concentration at which inhibition is half-maximal. In the case of `Oc1ccc2c(c1)C(c1ccc(O[C@H]3CCN(CCCF)C3)cc1)=C(c1ccncc1F)CC2` [Example 1, 8-[4-[(3S)-1-(3-fluoropropyl)pyrrolidin-3-yl]oxyphenyl]-7-(3-fluoro-4-pyridyl)-5,6-dihydronaphthalen-2-ol], the IC50 in assay [1] came out at 460 nM. Further, in assay [2], the DC50 is 34 nM and the “% Degradation at 3 μM” value turned out to be 84%.

On to `Oc1ccc2c(c1)C(c1ccc(O[C@H]3CCN(CCCF)C3)cc1)=C(C1=CCOCC1)CC2` [Example 3, 7-(3,6-dihydro-2H-pyran-4-yl)-8-[4-[(3S)-1-(3-fluoropropyl)pyrrolidin-3-yl]oxyphenyl]-5,6-dihydronaphthalen-2-ol], for which the IC50 in assay [1] is 1510 nM. Besides, in assay [2], the DC50 amounted to 85 nM and the “% Degradation at 3 μM” value is 80%.

For `Oc1ccc2c(c1)C(c1ccc(O[C@H]3CCN(CCCF)C3)cc1)=C(c1ccc(F)cc1Cl)CC2` [Example 4, 7-(2-chloro-4-fluoro-phenyl)-8-[4-[(3S)-1-(3-fluoropropyl)pyrrolidin-3-yl]oxyphenyl]-5,6-dihydronaphthalen-2-ol], the IC50 in assay [1] amounted to 284 nM. Also, in assay [2], the DC50 is 12 nM and the “% Degradation at 3 μM” value is reported as 87%.

In the case of `Oc1ccc2c(c1)C(c1ccc(O[C@H]3CCN(CCCF)C3)cc1)=C(c1ccc3[nH]ccc3c1)CC2` [Example 5, 8-[4-[(3S)-1-(3-fluoropropyl)pyrrolidin-3-yl]oxyphenyl]-7-(1H-indol-5-yl)-5,6-dihydronaphthalen-2-ol], the IC50 turned out to be 72 nM in assay [3], 28 nM in assay [1] and 209 nM in assay [4]. Moreover, the DC50 in assay [2] came out at 0.5 nM. The “% Degradation at 3 μM” value in assay [2] came to 81%.

As for `Oc1ccc(C2=C(c3ccc(O[C@H]4CCN(CCCF)C4)cc3)c3cc(O)ccc3CC2)c(F)c1` [Example 6, 7-(2-fluoro-4-hydroxy-phenyl)-8-[4-[(3S)-1-(3-fluoropropyl)pyrrolidin-3-yl]oxyphenyl]-5,6-dihydronaphthalen-2-ol], the values for the concentration for half-maximal inhibition (IC50) in assay [3], in assay [1] and in assay [4] were 8 nM, 2 nM and 13 nM, respectively. Further, the DC50 in assay [2] is 0.2 nM. Further, the “% Degradation at 3 μM” value in assay [2] is reported as 84%.

As to `Oc1ccc2c(c1)SCC(c1ccc3[nH]ccc3c1)=C2c1ccc(O[C@H]2CCN(CCCF)C2)cc1` [Example 19, 4-[4-[(3S)-1-(3-fluoropropyl)pyrrolidin-3-yl]oxyphenyl]-3-(1H-indol-5-yl)-2H-thiochromen-7-ol], the concentration for half-maximal inhibition (IC50) in assay [3] was found to be 11 nM; in assay [1] it was 7 nM; in assay [4], 23 nM. The DC50 in assay [2] is 3 nM. The “% Degradation at 3 μM” value in assay [2] was 78%.

As to `Oc1ccc2c(c1)SCC(c1ccc3c(c1)CCN3)=C2c1ccc(O[C@H]2CCN(CCCF)C2)cc1` [Example 20, 4-[4-[(3S)-1-(3-fluoropropyl)pyrrolidin-3-yl]oxyphenyl]-3-indolin-5-yl-2H-thiochromen-7-ol], the 50% inhibitory concentration (IC50) was found to be 21 nM in assay [3], 15 nM in assay [1] and 46 nM in assay [4]. Besides, in assay [2], the DC50 amounted to 3 nM. Besides, the “% Degradation at 3 μM” value in assay [2] came to 86%.

Turning to `Oc1ccc2c(c1)C(c1ccc(O[C@H]3CCN(CCCF)C3)cc1)=C(c1ccc(Cl)cc1Cl)CCS2` [Example 182, 4-(2,4-dichlorophenyl)-5-[4-[(3S)-1-(3-fluoropropyl)pyrrolidin-3-yl]oxyphenyl]-2,3-dihydro-1-benzothiepin-7-ol], in assay [2], the DC50 came to 5 nM and the “% Degradation at 3 μM” value is 79%.

For the compound `O=S1(=O)CCC(c2ccc(Cl)cc2Cl)=C(c2ccc(O[C@H]3CCN(CCCF)C3)cc2)c2ccc(O)cc21` [Example 231, 4-(2,4-dichlorophenyl)-5-[4-[(3S)-1-(3-fluoropropyl)pyrrolidin-3-yl]oxyphenyl]-1,1-dioxo-2,3-dihydro-1λ^6-benzothiepin-8-ol], in assay [2], the DC50 stood at 2 nM and the “% Degradation at 3 μM” value was determined as 96%.
